The nature of the assay: Antagonist activity against human D3R expressed in CHO cells assessed as inhibition of quinpirole-induced mitogenesis after 16 hrs by [3H]thymidine uptake assay.
Consider `O=C(NCCCCN1CCN(c2cccc(Cl)c2Cl)CC1)c1cn2ccccc2n1`, for which the IC50 (commonly the concentration that gives 50% inhibition) worked out at 0.0072 µM.

`CC(C)(C)c1nc(N2CCN(CCCCNC(=O)c3nc4ccccc4[nH]3)CC2)cc(C(F)(F)F)n1`: the IC50 turned out to be 0.208 µM.

With `COc1ccccc1N1CCN(CCCCNC(=O)c2cn3ccccc3n2)CC1`, the IC50 was determined as 0.003 µM.

Regarding `O=C(NCCCCN1CCN(c2ncnc3ccccc23)CC1)c1cn2ccccc2n1`, the IC50 was found to be 0.94 µM.

For the origin of these results see BindingDB's records for doi:10.1021/jm500801r (Southern Research Institute, 2014).
